In PubChem BioAssay AID179 (DTP/NCI, 2004):
Several values for one entry are separate records, joined by “and”; a condition that tells them apart may be missing. Equal entries are not always repeated. Activity calls are given as the source filed them.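 The calls were made as follows: active = compounds giving half or more protection of infected cells from virus-caused growth loss, again on retest; inactive = the rest.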 Where a SMILES comes first, the peptide text is derived from it. [ ]: non-standard residue; d: D form. The star is where a group is joined. Ac5c = NC1(C(=O)O)CCCC1; Boc = CC(C)(C)OC(=O)*; tBu = CC(C)(C)*

System: CEM cells HIV-1 protection, formazan growth assay
Assay: NCI AIDS Antiviral Assay
Conditions: for IC50: measured here: growth of uninfected CEM cells
Method in brief: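 Five concentrations of each compound were applied to infected and uninfected human CEM cells. Protection from HIV-1 was judged from growth measured with a soluble formazan assay.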

| Structure (SMILES) | EC50 | IC50 | outcome |
| --- | --- | --- | --- |
| COC1/C=C/OC2(C)Oc3c(C)c(OC(C)=O)c4c(c3C2=O)C(=O)C=C(NC(=O)/C(C)=C\C=C\C(C)C(O)C(C)C(O)C(C)C(OC(C)=O)C1C)C4=O (configuration not stated) | > 200 µM | 5.89 µM |  |
| COc1cc(-c2cc(CCC(=O)Nc3ccccc3[N+](=O)[O-])n(-c3ccc([N+](=O)[O-])cc3[N+](=O)[O-])n2)ccc1O | > 47.9 µM | > 47.9 µM |  |
| COc1ccc(C2=C(C#N)C(=O)OCCN2C)cc1 | > 200 µM | > 200 µM |  |
| CC(=O)OC1CC[C@@]2(C)C(=CC[C@@H]3[C@@H]2CC[C@]2(C)Nc4c(cnn4-c4ccc(F)cc4)C[C@@H]32)C1 (some centres not stated) | > 10 µM | > 10 µM |  |
| CC(=O)NNc1nc(C)c(C(=O)NNC(=O)C(=O)Nc2ccccc2C#N)s1 | > 89.1 µM | 51.3 µM |  |
| CCOC(=O)c1cn(C)nc1N/C(C)=C\C(=O)c1ccccc1 | > 200 µM | 75.9 µM |  |
| Cc1ccc(C(=O)Nc2ccc(S(=O)(=O)O)c3cc(S(=O)(=O)O)cc(S(=O)(=O)O)c23)cc1NC(=O)c1cccc(N)c1 | > 200 µM | > 200 µM |  |
| CC(OC(C)(C)C)C1NC(=O)C(CCCCNC(=O)OC(C)(C)C)NC(=O)C(Cc2c[nH]c3ccccc23)NC(=O)C(Cc2ccccc2)NC(=O)C2(CCCC2)NC(=O)C(Cc2ccccc2)NC1=O (configuration not stated) (cyclo([Ac5c]FWK(Boc)T(tBu)F); configuration not given here) | > 100 µM | 18.6 µM |  |
| O=S(=O)(O)OC1CCCCC1Nc1ccccc1 (configuration not stated) |  |  | inactive |
| O=P1(O)c2ccccc2CSCc2ccccc21 | > 324 µM | > 324 µM |  |
| CC1(S)CC2C(CC1Sc1ccccc1)C2(C)C (configuration not stated) | > 25.7 µM | > 25.7 µM |  |
| O=CN/C=C\c1cc(O)ccc1O | > 427 µM | 5.25 µM |  |
| COc1c2c(c3c(c1CCC(=O)O)OC(C)(C)C=C3)OC(C)(C)C=C2 | > 200 µM | 138 µM |  |
| N#CC(NCCc1ccccc1)c1ccc(C(C#N)NCCc2ccccc2)cc1 (configuration not stated) | > 200 µM | 10.5 µM |  |
| COc1ccc2c(c1)c(=O)c(C(=O)O)cn2CCCOc1ccc([N+](=O)[O-])cc1 |  |  | inactive |
| O=C(C(=Cc1ccc(F)cc1)C(=O)c1ccccc1)c1ccccc1 | > 110 µM | > 100 µM |  |
| CO[C@@]1(c2ccccc2)O[C@H]2OCCC2[C@H]1c1ccc(Cl)cc1 (some centres not stated) | > 11.5 µM | > 11.5 µM |  |
| O=S(=O)(O)c1cc(N=Nc2ccc(/C=C/c3ccc(N=Nc4cc(S(=O)(=O)O)c5cccnc5c4O)cc3)cc2)c(O)c2ncccc12 | 3.98 µM | 93.3 µM |  |
| NC(=O)Cc1ncn(-c2ccccc2)n1 | > 200 µM | > 200 µM |  |

| Structure (SMILES) | EC50 | IC50 | outcome |
| --- | --- | --- | --- |
| COCCN(C(C)=O)C1CCC2(SCCS2)c2[nH]c3ccccc3c21 (configuration not stated) | > 200 µM | > 200 µM |  |
| CCOC(=O)/C(=C\c1cccc(OC)c1)C(C)=O | > 525 µM | 95.5 µM |  |
| CCOC(=O)/C(=C\c1ccc(O)c(OC)c1)C(=O)c1ccccc1 | > 288 µM | 41.7 µM |  |
| Cc1ccc(NC(=O)CC(=O)n2nc(-c3ccccc3)c(N=Nc3ccccc3Cl)c2-c2ccccc2)cc1 | > 9.77 µM | > 9.77 µM |  |
| COC(=O)CCCC=C(c1cc(Br)c(OC)c(C(F)(F)F)c1)c1cc(Br)c(OC)c(C(F)(F)F)c1 | > 200 µM | 40.7 µM |  |
| COc1ccc([C@@H]2CC(=O)NCCCNCCCCNCCCN2)cc1 | > 200 µM | 123 µM |  |
| O=c1ccn(C2OC(CO)C(O)C2[Se]c2ccccc2)c(=O)[nH]1 (configuration not stated) | > 200 µM | > 200 µM |  |
| CCCCCCCCCCCCCC(=O)OC1C(C)C2(O)C(C=C(CO)CC3(O)C(O)C(C)=CC32)C2C(C)(C)C12OC(C)=O (configuration not stated) |  |  | active |
| Cc1nn(C(=O)Cc2ccccc2)c2c1C(c1ccc(Cl)cc1)SC(N)=N2 (configuration not stated) | 110 µM | 158 µM |  |
| COC(=O)[C@H](NC(=O)OC(C)(C)C)[C@H]1COC(C)(C)O1 | > 200 µM | > 200 µM |  |
| COC1C(=O)CCC2(CO2)C1(O)C1(C)OC1CCC(C)C (configuration not stated) | > 200 µM | 4.37 µM |  |
| O=C(O)CN1C=C(C(=O)c2cc3ccccc3n2S(=O)(=O)c2ccccc2)CCC1 | > 200 µM | 89.1 µM |  |
| Cc1ccc([C@H]2CC(=O)C[C@H](c3ccc(C)cc3)C23C(=O)c2ccccc2C3=O)cc1 | > 200 µM | > 200 µM |  |
| COc1cccc(C(=O)CC(c2ccccc2)C(C)(C)[N+](=O)[O-])c1 (configuration not stated) | > 200 µM | 95.5 µM |  |
| CN(C)CCCn1c(-c2cc(C(C)(C)C)c(O)c(C(C)(C)C)c2)csc1=Nc1ccccc1 | > 200 µM | 3.55 µM |  |
| COC(=O)c1cc(C)ccc1CC(Cc1cccc(C)c1)C(=O)OC (configuration not stated) | > 200 µM | > 200 µM |  |
| O=c1/c(=C\c2ccccc2)sc2n1C(c1ccccc1)C1(O)CCCCC1N=2 (configuration not stated) | > 200 µM | 60.3 µM |  |
| COc1cc(C=C2C(=O)OC(C)(C)OC2=O)cc(OC)c1OC | > 776 µM | 83.2 µM |  |
| N#Cc1c(-c2ccccc2)cc(-c2ccccc2)n(C2OC(CO)C(O)C(O)C2O)c1=S (configuration not stated) | > 200 µM | 15.1 µM and 26.9 µM |  |

| Structure (SMILES) | EC50 | IC50 | outcome |
| --- | --- | --- | --- |
| Cc1cc(C)c(C(=O)/C=C/c2ccccc2)c(C)c1 | > 28.8 µM | > 28.8 µM |  |
| C=C[C@@H](OCOCC[Si](C)(C)C)[C@@H](CC)OC(CCCOC(=O)C(C)(C)C)OC (some centres not stated) | > 200 µM | > 200 µM |  |
| CN=C(NC)c1ncn(C2OC(CO)C(O)C2O)n1 (configuration not stated) |  |  | inactive |
| O=C(C(/C=N\C(=S)Nc1ccccc1Cl)=C(/O)c1ccccc1)c1ccccc1 | > 200 µM | 12 µM |  |
| COC(=O)C1Cc2c([nH]c3ccccc23)-c2[nH]c3ccccc3c2CC(NC(C)=O)C(=O)NCC(=O)NCC(=O)N1 (configuration not stated) | > 200 µM | > 200 µM |  |
| CN(/N=C/c1cccc2cccnc12)c1ccc(Cl)cc1[N+](=O)[O-] | > 200 µM | 178 µM |  |
| O=c1sc2ccccc2n1CC1CS1 (configuration not stated) | > 302 µM | 11 µM |  |
| CCc1cc(Cc2cc(CC)c(NC(=O)C(=O)Cc3ccccn3)c(CC)c2Cl)c(Cl)c(CC)c1NC(=O)C(=O)Cc1ccccn1 | > 72.4 µM | > 72.4 µM |  |
| CCOCCN(Cc1ccc(CN(CCOCC)C(=O)C(Cl)Cl)cc1)C(=O)C(Cl)Cl | > 200 µM | > 200 µM |  |
| CC(=O)NC1C(OCC(=O)NC(C)C(=O)NC(CCC(=O)NCCCCCNc2ccc([N+](=O)[O-])c3[nH]c4ccccc4c(=O)c23)C(N)=O)C(O)C(CO)OC1(C)OCc1ccccc1 (configuration not stated) | > 100 µM | 3.39 µM |  |
| COc1ccc(C(C2=C(C)C(=O)c3ccccc3C2=O)c2ccc(C(C)C)cc(=O)c2O)cc1 (configuration not stated) |  |  | inactive |
| CC(C)CCC1(O)O[C@H]2C[C@H]3[C@@H]4CCC5=CC(=O)C=C[C@]5(C)[C@H]4CC[C@]3(C)[C@H]2[C@@H]1C (some centres not stated) |  |  | inactive |
| CC(=O)OCC1OC(N2C(c3ccccc3)=CC(c3ccco3)C(C#N)=C2S)C(OC(C)=O)C(OC(C)=O)C1OC(C)=O (configuration not stated) | 178 µM | > 200 µM |  |
| COC(=O)C(C)(NC(=O)C(CC(=O)OC(C)(C)C)NC(=O)OC(C)(C)C)c1ccccc1 (configuration not stated) | > 200 µM | > 100 µM |  |
| C#CC[N+](C)(CC#C)CC#C |  |  | inactive |
| CC1SC(c2ccccc2)N(Nc2c3ccccc3nc3ccccc23)C1=O (configuration not stated) | > 67.6 µM | > 67.6 µM |  |
| COc1ccc(-c2nnc(-c3c(C)n(C)n(-c4ccccc4)c3=O)o2)cc1 | > 200 µM | > 200 µM |  |
| COc1ccc(C2c3cn[nH]c3CC3CCCCC32)cc1 (configuration not stated) | > 200 µM | 34.7 µM |  |
| c1ccc2c(c1)c1c(n2CCOCCCN2CCCCC2)CCCC1 | > 200 µM | 5.37 µM |  |
